The structures appear in SMILES notation. Where a SMILES comes first, the peptide text is derived from it. [ ]: non-standard residue; d: D form.

What is called half-life is the time in which the quantity being followed falls by half. Read a high half-life as slow decline. One may read the Cmax as the highest concentration seen after dosing.

For data set [1], the target named is T1, human CD47/SIRPα interaction (Homo sapiens, UniProt Q08722).
T1 construct: Human or mouse CD47-IgV-Domain-hIg fusion proteins (20 nM, Sino Biological, China); purchased Sino Biological (hIg fusion); ACROBiosystems (biotinylated human CD47); host or cells: SIRPα partner: CHO cells stably expressing human SIRPα
T1 sequence (Q08722 19-127 limits assumed): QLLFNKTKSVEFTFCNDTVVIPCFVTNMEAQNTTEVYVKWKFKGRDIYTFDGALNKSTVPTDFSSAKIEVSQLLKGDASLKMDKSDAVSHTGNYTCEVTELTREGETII
Kind of data set: Blocking assay, human CD47 protein binding to CHO cells expressing human SIRPα (flow cytometry). The conditions noted are these: blockade of peptides to hCD47 relative to parent pep-20, Table S4. Here is the method:
Human or mouse CD47-IgV-Domain-hIg fusion proteins (20 nM, Sino Biological, China), or biotinylated human CD47 protein (20 nM, ACROBiosystems, USA) was incubated with titrating concentrations of peptides or anti-human CD47 antibody (B6H12) in phosphate-buffered saline (PBS, pH 7.4) for 1 hour at 4°C. The mixture was incubated with human or mice SIRPα overexpressed Chinese hamster ovary cells for 30 min at 4°C, washed to remove unbound mixtures and phycoerythrin (PE)-conjugated goat anti-human IgG or PE-conjugated streptavidin was incubated (eBioscience, USA). Cells were then analyzed by flow cytometry (BD Biosciences, USA). The IC50 was determined from sigmoidal dose response curves illustrated by GraphPad Prism.
Background: In flow cytometry, cells or beads pass a laser one at a time.

In data set [2] the test system is MC38 tumor-bearing C57BL/6 mice. Put plainly: Hematological toxicity in MC38 tumor-bearing mice. It counts as in vivo. The conditions noted are these: 2 mg/kg i.p. every day two weeks versus miap301 400 μg every 3 days x5, day 14, n = 4 - 5. Here is the method: anti-CD47. (A, B) MC38 tumor-bearing C57BL/6 mice were treated i.p. with 2 mg/kg pep-20-D12 every day for two weeks or 400μg anti -mouse CD47 antibody
(miap301) every 3 days for a total of 5 times, and normal saline or ratIg as the negative controls, respectively (n = 4 - 5). On day 14, hematologic parameters of red blood cell (A), hemoglobin (B) level were analyzed. Data are represented as means ± SEM. Statistical significance was determined by unpaired Student's t test.
111 Mouse toxicity assays
112 Normal C57BL/6 mice were injected s.c. with 2 mg/kg peptides or normal 113 saline as the negative control daily from day 1 to 14 (n = 5). On days 0 and 14, 114 mice blood samples were collected via retro-orbital bleed. For MC38 115 tumor-bearing mice, blood samples were collected after treatment (n = 4 - 5).
116 Hematologic and blood biochemical parameters were analyzed by ADVIA 117 2120i Hematology Analyzer (Siemens, Germany). […]
124 The 3D structure of pep-20 was predicted by pep-FOLD3. […] The ΔdAffinity 126 between pep-20 and pep-20-derived alanine substituation analogue peptides 127 were calculated by Ala-scanning of molecular operating environment (MOE, 128 Chemical Computing Group, CA), which was used to display the structure of 129 pep-20 and docking model of pep-20 and CD47 including interaction of […]

Data set [3] is described as follows: Peptide stability assay in 10% human serum. The conditions noted are these: 200 μM peptide in normal saline, fresh human serum 10% vol/vol, 37°C, sampled 0 min to 48 h, RP-HPLC, triplicates. It counts as in vitro ADME. On the procedure:
proteolysis compared with parent pep-20. (A, B) Dose response curves of pep-20-D12 interfering CD47-Sirpα interaction. […]
peptide and serum were analyzed by RP-HPLC. Error bars indicate standard deviation of triplicates. Data are represented as means ± SEM. (E, F) The pharmacokinetic analysis […]
of pep-20 and pep- 20-D12.
Data are represented as means ± SEM. […]
human serum (10%, vol/vol).
8h, 24h, 36h and 48h. The acetonitrile-glacial acetic acid mixture was utilized 136 to terminate the enzymatic reaction. After centrifuged at 12000 rpm for 10 min, 137 […]
Pharmacokinetic assays in vivo 140 […]
intravenous dose of 40 mg/kg of peptides. Blood samples were collected an d 142 […]
rpm for 10 min. The supernatant was analyzed by RP-HPLC. The 145 pharmacokinetic parameters of peptides were determined by 146 noncompartmental analysis (NCA) using Phoenix WinNonlin software program 147 5.2.1 (Certara, Princeton, USA). The maximum plasma concentration Cmax and 148 elimination half-life (T1/2) were calculated. 149

A further data set can be described thus: in vivo. The conditions noted are these: C57BL/6, mouse, iv, 40 mg/kg.
Data set [4] can be described thus: Pharmacokinetic assay in vivo. The conditions noted are these: C57BL/6, mouse, plasma, iv, 40 mg/kg.
Experimental: of pep-20 and pep- 20-D12. The plasma concentration-time curve of pep-20 (E) and
C57BL/6 mice with weight of 18-20 g were administrated with a single 141
centrifuged at 8000 rpm for 10 min at the indicated intervals. Plasma wa s 143
further mixed with 10% HClO4 at a ratio of 2∶1 (v/v) and centrifuged at 16,000 144

As for `C[C@H](NC(=O)[C@@H](CO)NC(=O)[C@@H](Cc1c[nH]c2ccccc12)NC(=O)[C@@H](C)N)C(=O)N[C@H](C(=O)N[C@@H](Cc1c[nH]c2ccccc12)C(=O)N[C@@H](CO)C(=O)N[C@@H](CC(N)=O)C(=O)N[C@@H](Cc1ccc(O)cc1)C(=O)N[C@H](Cc1c[nH]c2ccccc12)C(=O)N[C@H](CCCNC(=N)N)C(=O)N[C@H](Cc1c[nH]cn1)C(=O)O)[C@@H](C)O` [pep-20-D12] (H-[dA][dW][dS]ATWSNY[dW][dR][dH]-OH), the “Blocking rate relative to pep-20 (%)” value in data set [1] was found to be 105%. In data set [2], the “Blood toxicity (red blood cell, hemoglobin) compared with anti-CD47 antibody” value is on record as “less blood toxicity”. Further, in data set [3], the “Time for which the initial concentration was retained in human serum” value is listed as “up to 36 hours”. In “in vivo”, this compound gave a half-life of 6.36 h. Moreover, the Cmax in data set [4] worked out at 54.5 µg/mL.
